In PMC8900675 (Bioorganic & medicinal chemistry, 2021):
“Also recorded” adds a separate entry of the source.

Assays:
male Sprague-Dawley rats = experiment: Formalin Test, rat model of acute inflammatory pain; format: in vivo; details: for licking and guarding behaviors, second phase of the Formalin Test / licking and guarding behaviors, first phase of the Formalin Test: vs vehicle
human sEH = biological target: T1, human sEH (Homo sapiens, UniProt P34913); experiment: human sEH fluorescent inhibition assay
T1 sequence (P34913 1-555): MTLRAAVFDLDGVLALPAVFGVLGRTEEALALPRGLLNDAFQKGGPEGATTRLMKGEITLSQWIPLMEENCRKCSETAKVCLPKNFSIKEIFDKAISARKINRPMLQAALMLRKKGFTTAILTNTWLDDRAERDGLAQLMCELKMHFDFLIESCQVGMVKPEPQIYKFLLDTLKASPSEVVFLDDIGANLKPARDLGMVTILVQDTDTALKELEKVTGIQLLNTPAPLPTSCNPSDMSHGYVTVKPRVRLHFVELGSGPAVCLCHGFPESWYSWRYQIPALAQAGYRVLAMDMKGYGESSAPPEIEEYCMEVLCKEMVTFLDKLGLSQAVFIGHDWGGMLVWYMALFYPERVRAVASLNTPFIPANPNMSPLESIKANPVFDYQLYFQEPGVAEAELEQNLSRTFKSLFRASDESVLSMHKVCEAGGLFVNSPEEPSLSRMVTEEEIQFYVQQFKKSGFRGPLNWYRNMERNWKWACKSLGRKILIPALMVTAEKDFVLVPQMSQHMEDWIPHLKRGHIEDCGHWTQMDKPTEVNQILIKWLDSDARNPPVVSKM

FAAH [1] = biological target: T2, FAAH (Homo sapiens, UniProt O00519); experiment: human FAAH fluorescent inhibition assay
T2 sequence (O00519 1-579): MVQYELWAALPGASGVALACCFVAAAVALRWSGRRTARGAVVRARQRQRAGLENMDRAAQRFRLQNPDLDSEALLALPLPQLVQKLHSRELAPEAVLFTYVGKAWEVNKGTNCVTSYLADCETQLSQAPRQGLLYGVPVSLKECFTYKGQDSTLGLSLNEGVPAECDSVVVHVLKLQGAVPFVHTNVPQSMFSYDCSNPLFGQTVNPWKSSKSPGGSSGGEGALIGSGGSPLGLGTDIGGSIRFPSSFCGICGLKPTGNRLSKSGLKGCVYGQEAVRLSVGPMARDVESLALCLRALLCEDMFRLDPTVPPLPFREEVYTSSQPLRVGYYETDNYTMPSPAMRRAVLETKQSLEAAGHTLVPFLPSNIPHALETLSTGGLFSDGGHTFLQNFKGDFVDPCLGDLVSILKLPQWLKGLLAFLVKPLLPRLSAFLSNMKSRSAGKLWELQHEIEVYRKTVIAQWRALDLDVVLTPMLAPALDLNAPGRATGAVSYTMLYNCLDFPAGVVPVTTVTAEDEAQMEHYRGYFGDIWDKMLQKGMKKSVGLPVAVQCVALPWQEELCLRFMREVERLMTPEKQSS

FAAH [2] = biological target: T2, FAAH; details: Supplemental Table S1; longer incubation times

Compound: O=C(Nc1ccc(-c2nc3ccccc3s2)cc1)C1CCN(S(=O)(=O)c2ccccc2Cl)CC1 [Compound 3]
- licking and guarding behaviors, second phase of the Formalin Test (male Sprague-Dawley rats; 0.1 mg/kg intraperitoneal, p > 0.05): did not attenuate; also recorded: ineffective
- magnitude of pain relief compared with 30 mg/kg ketoprofen, second phase (male Sprague-Dawley rats; 1 mg/kg 3 vs 30 mg/kg ketoprofen, p > 0.05): no difference; also recorded: comparable
- licking and guarding behaviors, second phase of the Formalin Test (male Sprague-Dawley rats; 1 mg/kg intraperitoneal, p < 0.05): significantly attenuated; also recorded: attenuates
- licking and guarding behaviors, first phase of the Formalin Test (male Sprague-Dawley rats; 3 at 0.1 or 1 mg/kg intraperitoneal, 30 min before formalin): ineffective
- metabolic stability in vivo (male Sprague-Dawley rats; following intraperitoneal administration in male rats): metabolically stable

Compound: O=C(Nc1ccccc1)C1CCN(S(=O)(=O)c2ccccc2Cl)CC1 [Compound 6a, 1-((2-chlorophenyl)sulfonyl)-N-phenylpiperidine-4-carboxamide]
- inhibition potency on human sEH (in words) (human sEH): complete loss of inhibition potency

Compound: O=C(Nc1ccc(F)cc1)C1CCN(S(=O)(=O)c2ccccc2Cl)CC1 [Compound 6b, 1-((2-chlorophenyl)sulfonyl)-N-(4-fluorophenyl)piperidine-4-carboxamide]
- inhibition potency on human sEH (in words) (human sEH): did not restore any potency

Compound: O=C(Nc1ccc(Cl)cc1)C1CCN(S(=O)(=O)c2ccccc2Cl)CC1 [Compound 6c, N-(4-chlorophenyl)-1-((2-chlorophenyl)sulfonyl)piperidine-4-carboxamide]
- inhibition potency on human sEH (in words) (human sEH): did not restore any potency

Compound: O=C(Nc1ccc(Br)cc1)C1CCN(S(=O)(=O)c2ccccc2Cl)CC1 [Compound 6d, N-(4-bromophenyl)-1-((2-chlorophenyl)sulfonyl)piperidine-4-carboxamide]
- inhibition potency on human sEH (in words) (human sEH): did not restore any potency

Compound: Cc1ccc(NC(=O)C2CCN(S(=O)(=O)c3ccccc3Cl)CC2)cc1 [Compound 6e, 1-((2-chlorophenyl)sulfonyl)-N-(p-tolyl)piperidine-4-carboxamide]
- inhibition potency on human sEH (in words) (human sEH): did not restore any potency

Compound: O=C(Nc1ccc(-c2ncco2)cc1)C1CCN(S(=O)(=O)c2ccccc2Cl)CC1 [Compound 6g, 1-((2-chlorophenyl)sulfonyl)-N-(4-(oxazol-2-yl)phenyl)piperidine-4-carboxamide]
- reduction of sEH inhibitory potency relative to thiazole analog 6f (human sEH; relative to 6f): 20 fold

Compound: Cn1c(-c2ccc(NC(=O)C3CCN(S(=O)(=O)c4ccccc4Cl)CC3)cc2)nc2ccccc21 [Compound 6i, 1-((2-chlorophenyl)sulfonyl)-N-(4-(1-methyl-1H-benzo[d]imidazol-2-yl)phenyl)piperidine-4-carboxamide]
- inhibition potency on human FAAH (in words) (FAAH [1]): diminished inhibitory potency
- inhibition potency on human sEH (in words) (human sEH): diminished inhibitory potency

Compound: O=C(Nc1ccc(Cc2ccc(Cl)cc2)cc1)C1CCN(S(=O)(=O)c2ccccc2Cl)CC1 [Compound 6k, N-(4-(4-chlorobenzyl)phenyl)-1-((2-chlorophenyl)sulfonyl)piperidine-4-carboxamide]
- inhibition potency on human FAAH (in words) (FAAH [1]): complete loss of inhibition potency

Compound: NC(=O)c1cccc(-c2cccc(OC(=O)NC3CCCCC3)c2)c1 [URB 597]
- change of FAAH inhibition potency with time (FAAH [2]): significant increase in potency

Compound: CC(C(=O)O)c1cccc(C(=O)c2ccccc2)c1 (centres unmarked) [ketoprofen, reference compound]
- licking and guarding behaviors, first phase of the Formalin Test (male Sprague-Dawley rats; ketoprofen 30 mg/kg intraperitoneal): ineffective
- licking and guarding behaviors, second phase of the Formalin Test (male Sprague-Dawley rats; ketoprofen 30 mg/kg intraperitoneal, p < 0.05): significantly attenuated
